{"source": "BindingDB's records for doi:10.1021/jm00164a014", "about": "(Wellcome Research Laboratories, 1990)", "key": {"ATIC (Sus scrofa)": {"molecular_target": "ATIC (Sus scrofa)", "experiment": "Inhibition activity against AICAR formyltransferase from hog liver"}, "[1]": {"molecular_target": "Trifunctional purine biosynthetic protein adenosine-3 (Mus musculus) (UniProt Q64737)", "sequence (Q64737 whole entry, looked up)": "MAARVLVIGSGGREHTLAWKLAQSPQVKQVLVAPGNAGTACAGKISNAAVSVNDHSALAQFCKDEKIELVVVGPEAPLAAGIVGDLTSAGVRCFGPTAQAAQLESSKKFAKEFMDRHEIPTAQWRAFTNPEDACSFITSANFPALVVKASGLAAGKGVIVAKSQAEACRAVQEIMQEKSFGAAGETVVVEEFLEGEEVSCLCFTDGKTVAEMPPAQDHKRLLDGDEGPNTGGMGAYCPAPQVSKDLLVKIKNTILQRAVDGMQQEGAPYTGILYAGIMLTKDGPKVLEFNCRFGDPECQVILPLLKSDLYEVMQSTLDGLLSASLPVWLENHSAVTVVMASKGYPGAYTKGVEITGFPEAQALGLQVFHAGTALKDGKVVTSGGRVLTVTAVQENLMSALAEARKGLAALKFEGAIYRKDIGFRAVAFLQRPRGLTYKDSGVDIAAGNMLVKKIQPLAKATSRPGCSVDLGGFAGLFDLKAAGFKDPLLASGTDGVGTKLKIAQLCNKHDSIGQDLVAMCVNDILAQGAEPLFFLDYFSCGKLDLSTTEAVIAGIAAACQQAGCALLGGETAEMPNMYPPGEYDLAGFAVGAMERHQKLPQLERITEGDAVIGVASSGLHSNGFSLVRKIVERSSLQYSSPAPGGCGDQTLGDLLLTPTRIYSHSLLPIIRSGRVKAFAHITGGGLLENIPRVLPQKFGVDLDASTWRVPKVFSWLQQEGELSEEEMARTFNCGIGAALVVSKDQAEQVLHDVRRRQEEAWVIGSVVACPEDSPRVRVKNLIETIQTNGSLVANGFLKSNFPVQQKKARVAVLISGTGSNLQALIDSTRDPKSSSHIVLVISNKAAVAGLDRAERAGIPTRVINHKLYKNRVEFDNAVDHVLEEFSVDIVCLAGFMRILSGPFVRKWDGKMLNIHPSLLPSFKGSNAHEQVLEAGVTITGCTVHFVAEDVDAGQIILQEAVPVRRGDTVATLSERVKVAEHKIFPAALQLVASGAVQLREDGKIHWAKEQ", "experiment": "Inhibition activity against Glycinamide ribonucleotide transformylase (GAR-TFase) from L cell"}}}
{"smiles": "CN(CCCc1c(N)nc(N)[nH]c1=O)c1ccc(C(=O)NC(CCC(=O)O)C(=O)O)cc1", "note": "(configuration not stated)", "values": [{"measurement": "IC50", "setting": "ATIC (Sus scrofa)", "value": 68, "unit": "µM"}, {"measurement": "IC50", "setting": "[1]", "value": 4.3, "unit": "µM"}]}
